Assay results taken from publication PMC6199744, “Development of Chemical Proteomics for the Folateome and Analysis of the Kinetoplastid Folateome” (ACS Infectious Diseases, 2018).
Where two headings read alike, the source gives them in different places.

Columns and labels:
[1] = molecular target: DIHYDROFOLATE REDUCTASE-T[…] (TB427.07.5480) (Trypanosoma brucei brucei, UniProt Q27783); test: Multitargeted bead mixture competition; assay type: binding; settings: for fold change vs vehicle control: vehicle control = 1
[2] = tested on: methylthioadenosine phosphorylase (LmjF.05.0830); test: Multitargeted bead mixture competition; assay type: binding, Leishmania; settings: for fold change vs vehicle control: protein LMJF.05.0830 METHYLTHIOADENOSINE PHOSPHORYLASE, PUTATIVE
[3] = molecular target: T. brucei lysate proteins (Trypanosoma brucei brucei, UniProt P23799); assay type: binding; settings: for fold change - vehicle control: protein PUTATIVE ADENYLATE CYCLASE […] (ESAG8) (CZT00028390.1)
[4] = molecular target: T. brucei lysate proteins (Trypanosoma brucei brucei, UniProt P04789); assay type: binding
[5] = tested on: dynein associated protein (Tb09.211.4920); test: Multitargeted bead mixture competition; assay type: binding, T. brucei; settings: for fold change - vehicle control / fold change: protein TB09.211.4920 DYNEIN-ASSOCIATED PROTEIN, PUTATIVE; for fold change: vehicle control = 1
[6] = molecular target: inosine-5′-monophosphate dehydrogenase (Tb927.10.16120) (Trypanosoma brucei brucei, UniProt P50098); test: Multitargeted bead mixture competition; assay type: binding, T. brucei; settings: for fold change: protein TB927.10.16120 INOSINE-5'-MONOPHOSPHATE DEHYDROGENASE, vehicle control = 1
[7] = molecular target: variant surface glycoprotein 221 (VSM2.TRYBB) (Trypanosoma brucei brucei, UniProt P26332); assay type: binding, T. brucei; settings: for fold change - vehicle control / fold change: protein VSM2_TRYBB VARIANT SURFACE GL[…] 1.2; for fold change: vehicle control = 1
[8] = tested on: IRON/ASCORBATE OXIDOREDUCTASE FAMILY PROTEIN, PUTA (Tb427.02.6180); test: Multitargeted bead mixture competition; assay type: binding, T. brucei; settings: for fold change: PUTATIVE
[9] = tested on: DHCH; test: Multitargeted bead mixture competition; assay type: binding, L. major; settings: CYTOPLASMIC, PUTATIVE; for fold change: vehicle control = 1
[10] = tested on: glutamate 5′-kinase (LmjF.26.2710); test: Multitargeted bead mixture competition; assay type: binding, Leishmania; settings: for fold change / fold change vs vehicle control: protein LMJF.26.2710 GLUTAMATE 5-KINASE, PUTATIVE; for fold change: vehicle control = 1
[11] = protein TB427.07.5480 DIH[…]-T[…]
[12] = protein TB427TMP.02.3210 TRIOS[…]
[13] = protein LMJF.26.0320 C-1-TETRAH[…]
[14] = protein CZT00028390.1 PUTATIVE ADENYLATE CYCLASE […] (ESAG8), vehicle control = 1
[15] = protein TB427TMP.02.3210 TRIOS[…], vehicle control = 1
[16] = protein TB427.02.6180 IRON/ASCORBATE OXIDOREDUCTASE FAMILY PROTEIN, vehicle control = 1
[17] = protein LMJF.26.0320 C-1-TETRAHYDROFOLATE SYNTHASE
[18] = bead mixture, T. brucei lysates
[19] = protein TB427.02.6180 IRON/ASCORBATE OXID[…] PROTEIN, vehicle control = 1
[20] = bead mixture, Leishmania lysates
[21] = relative to vehicle control = 1, protein TB427.02.6180 IRON/ASCORBATE OXIDOREDUCTASE FAMILY PROTEIN

SMILES	fold change - vehicle control [1, 11]	fold change vs vehicle control [2]	fold change - vehicle control [3]	fold change - vehicle control [4, 12]	fold change - vehicle control [5]	fold change [6]	fold change - vehicle control [7]	fold change [10]	fold change vs vehicle control [1, 11]	fold change vs vehicle control [3, 14]	fold change vs vehicle control [4, 15]	fold change [5]	fold change [7]	fold change vs vehicle control [10]	also measured
Nc1nc2cccc(-c3ccccc3)c2n1Cc1ccc(Cl)c(Cl)c1 [compound 3]	0.98	0.94	0.98	0.75	0.96	1	0.67	1.05							percentage of competition from bead binding ([1]; multitargeted bead mixture, free ligand 100 μM, T. brucei lysate, TB427.07.5480 DHFR-TS): -11%; percentage of competition from bead binding ([8]; multitargeted bead mixture, free ligand 100 μM, T. brucei lysate, Tb427.02.6180): 0%; fold change ([8]; relative to vehicle control = 1, protein TB427.02.6180 IRON/ASCORBATE OXID[…] PROTEIN): 0.9; fold change vs vehicle control [9, 13]: 0.96
NCCOCCOCC(=O)Nc1nc2ncc(CNc3ccc(C(=O)NC(CCC(=O)O)C(=O)O)cc3)nc2c(=O)[nH]1 (centres unmarked) [compound 6]		0.96				1			1.09	1.1	1.54	0.86	2.16	1.06	fold change [8, 16]: 0.28; fold change [9, 17]: 0.98
Nc1nc2[nH]cc(CCc3ccc(C(=O)N[C@@H](CCC(=O)O)C(=O)O)cc3)c2c(=O)[nH]1 [PTX, pemetrexed]		0.91				0.49						0.9	0.39	0.14	fold change vs vehicle control ([1]; protein TB427.07.5480 DIHYDROFOLATE REDUCTASE-T[…]): 1.19; fold change vs vehicle control [3]: 1.01; fold change vs vehicle control [4]: 0.63; binding to dynein associated protein (Tb09.211.4920) [5, 18]: bound specifically; binding to inosine-5′-monophosphate dehydrogenase (Tb927.10.16120) [6, 18]: appeared to bind; binding to variant surface glycoprotein 221 (VSM2.TRYBB) [7, 18]: bound specifically; fold change [8, 19]: 0.95; fold change [9, 13]: 0.79; association with glutamate 5′-kinase (LmjF.26.2710) [10, 20]: strongly associated
Nc1nc2c(c(=O)[nH]1)N(C=O)C(CNc1ccc(C(=O)N[C@@H](CCC(=O)O)C(=O)O)cc1)CN2 (some centres unmarked) [LEU, leucovorin]		0.96				1.11			1.45	1.17	2.16	0.78	3.08	1.15	fold change [8, 16]: 0.92; fold change [9, 17]: 0.98
CCCCCCOc1ccc(Cc2cnc(N)nc2N)cc1 [compound 1]	1.45	0.19	1.15	0.88	0.67	0.93	1.43	1.07							binding to methylthioadenosine phosphorylase (LmjF.05.0830) [2, 20]: bound; fold change [8, 21]: 0.85; fold change vs vehicle control [9, 17]: 0.93
NCCCNc1ccc(C(=O)NC(CCC(=O)O)C(=O)O)cc1 (centres unmarked) [compound 7]		1.02				1.04			0.98	0.95	1.05	0.68	0.81	1	fold change [8, 19]: 1.02; fold change [9, 13]: 1.06
CCCCCCOc1cccc(Cc2cnc(N)nc2N)c1 [compound 2]	1.44	0.89	0.97	0.98	0.91	1.03	1.6	1.07							fold change [8, 21]: 0.92; fold change vs vehicle control [9, 17]: 0.96
